Assay [1] concerns FPGS. As to conditions: addition of only one additional glutamic acid; cited from earlier work.
Assay [2] relates to hFPGS, from CCRF-CEM cells. As to conditions: at concentrations up to 1045 μM; cited from earlier work.
Assay [3] deals with T1, human DHFR (Homo sapiens, UniProt P00374).
T1 sequence (P00374 1-187): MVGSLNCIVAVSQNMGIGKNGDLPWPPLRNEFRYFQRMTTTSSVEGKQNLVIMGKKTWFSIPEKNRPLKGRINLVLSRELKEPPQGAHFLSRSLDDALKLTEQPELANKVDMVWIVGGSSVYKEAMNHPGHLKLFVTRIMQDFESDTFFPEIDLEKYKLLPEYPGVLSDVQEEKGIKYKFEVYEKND
The assay is described as follows: Dihydrofolate reductase. The following applies: for activity against DHFR in words: DHFR from different sources. It is filed as biochemical.

For assay [4], the target named is human TS (Homo sapiens, UniProt P04818). The assay is described as follows: Thymidylate synthase. It is filed as biochemical.

We go through 6 compounds from PMC3138190 (Bioorganic & medicinal chemistry, 2011).

Sequence of human TS (P04818 whole entry): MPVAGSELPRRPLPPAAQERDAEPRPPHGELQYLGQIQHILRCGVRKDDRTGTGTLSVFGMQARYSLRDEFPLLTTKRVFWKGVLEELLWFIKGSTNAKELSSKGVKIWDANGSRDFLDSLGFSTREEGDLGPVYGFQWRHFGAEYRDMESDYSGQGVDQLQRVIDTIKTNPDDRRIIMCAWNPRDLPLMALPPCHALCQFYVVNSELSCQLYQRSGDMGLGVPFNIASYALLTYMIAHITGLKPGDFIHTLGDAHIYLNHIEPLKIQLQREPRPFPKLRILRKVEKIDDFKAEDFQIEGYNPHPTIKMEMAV

Take `Cc1nc2ccc3ccc(CNc4ccc5c(c4)CN([C@@H](CCC(=O)O)C(=O)O)C5=O)cc3c2c(=O)[nH]1` [Compound 2]: the “substrate activity for FPGS” value in assay [1] is on record as “excellent substrate”.
With `Cc1[nH]c2nc(N)[nH]c(=O)c2c1Sc1ccc(C(=O)N[C@@H](CCC(=O)O)C(=O)O)cc1` [Compound 3, N-{4-[(2-amino-6-methyl-4-oxo-4,7-dihydro-3H-pyrrolo[2,3-d]pyrimidin-5-yl)thio]benzoyl}-L-glutamic acid], the “substrate activity for hFPGS” value in assay [2] is on record as “not a substrate”.
As for `Cc1nc2sc3cccc(CNc4ccc(C(=O)N[C@@H](CCC(=O)O)C(=O)O)cc4)c3c2c(=O)[nH]1` [Compound 4, N-(4-{[(2-methyl-4-oxo-3,4-dihydro[1]benzothieno[2,3-d]pyrimidin-5-yl)methyl]amino}benzoyl)-L-glutamic acid], the “activity against DHFR in words” value in assay [3] is “inactive”.
Take `Cc1nc2sc3cccc(CNc4ccc5c(c4)CN([C@@H](CCC(=O)O)C(=O)O)C5=O)c3c2c(=O)[nH]1` [Compound 5, (2S)-2-(5-{[(2-methyl-4-oxo-3,4-dihydro[1]benzothieno[2,3-d]pyrimidin-5-yl)methyl]amino}-1-oxo-1,3-dihydro-2H-isoindol-2-yl)pentanedioic acid]: in assay [4] (hTS, rigid versus flexible side chain, 2-methyl), the “potency against hTS relative to 4 (less potent)” value was 3 fold. In addition, the “activity against DHFR in words” value in assay [3] was “inactive”.
As to `Nc1nc2sc3cccc(CNc4ccc(C(=O)N[C@@H](CCC(=O)O)C(=O)O)cc4)c3c2c(=O)[nH]1` [Compound 6, N-(4-{[(2-amino-4-oxo-3,4-dihydro[1]benzothieno[2,3-d]pyrimidin-5-yl)methyl]amino}benzoyl)-L-glutamic acid], the “potency against hDHFR relative to MTX (less potent)” value in assay [3] is reported as “about 5 times”.
On to `Nc1nc2sc3cccc(CNc4ccc5c(c4)CN([C@@H](CCC(=O)O)C(=O)O)C5=O)c3c2c(=O)[nH]1` [Compound 7, (2S)-2-(5-{[(2-Amino-4-oxo-3,4-dihydro[1]benzothieno[2,3-d]pyrimidin-5-yl)methyl]amino}-1-oxo-1,3-dihydro-2H-isoindol-2-yl)pentanedioic acid], for which the “potency against hTS relative to compound 1 (more potent)” value in assay [4] (hTS) was 2 fold. Moreover, the “potency relative to 6” value in assay [4] (rigid versus flexible side chain, 2-amino) is reported as “twice as potent”. For the same compound, in assay [3], the “potency against hDHFR relative to MTX (less potent)” value was “about 5 times”.
